The source of these data is patent publication US20240294545A1 (CSPC Zhongqi Pharmaceutical Technology (Shijiazhuang) Co., …, priority 2020, published 2024).

Read-outs that look alike come from different tables or passages of the source. Marks after values point to notes of the source that are not given here.

One test deals with ATM-phosphorylated KAP1. The experiment in a line: Intracellular ATM-phosphorylated KAP1 level, ICW assay in MCF7 cells. The conditions noted are these: for IC50: MCF7 cells, 2 h compound, 10 Gy irradiation, further 1 h, read-out: pKAP1 IC50. The class given is cell-based, Human. Here is the method: 4 Inhibition on Intracellular ATM-Phosphorylated KAP1 Level by the Compounds of the Present Disclosure: ICW Assay
• Cell: Human breast cancer cell line MCF7 • Materials and reagents:
4.2 Experimental Procedures
• (1) Cell inoculation • MCF7 cells were inoculated on a 384-well plate, 10000 cells/well (25 μL/well), and cultured overnight at 37° C. with 5% CO2. • (2) Activity detection • 1) The compound was formulated into a 100 mM solution with DMSO and then sequentially diluted with a gradient of 1:3 to yield a total of 10 concentration gradients, wherein the maximum concentration was 100 μM. • 2) 25 nL of each of the compound solutions with gradient concentrations prepared in step 1) was added to each well of the cell plate (Corning #356663) by using I-DOT One, resulting in a final concentration of 100 nM (maximum dose). • 3) The cell plate containing compound was incubated at 37° C. with 5% CO2 for 2 h. After 2 h, the cell plate was irradiated with a dose of 10 Gy, and then further incubated for 1 h. • 4) 25 μL of 8% paraformaldehyde was added to each well, followed by incubating at room temperature for 20 min. • 5) The 8% paraformaldehyde was discarded, followed by adding 0.1% TrintonX-100 and incubating at room temperature for 30 min. • 6) Odessey blocking buffer was added at 50 μL/well, followed by incubating at room temperature for 1.5 h. • 7) The Odessey blocking buffer was discarded, and then a primary antibody (Phospho-KAP1, 1:2000 dilution) was added, followed by incubating overnight at 4° C. • 8) The primary antibody was removed, followed by washing with PBS+0.1% Tween 20 for 5 times. • 9) DNA dye DRAQ5 coated with a second antibody (IRDye 800CW Goat anti-Rabbit, 1:4000 dilution) was added, followed by incubating at room temperature for 1 h. • 10) The second antibody was removed, followed by washing with PBS+0.1% Tween 20 for 5 times. • 11) PBS+0.1% Tween 20 was sucked off with Odyssey. • (3) Data analysis • 1) the relative ratio of Channel 800/Channel 700 for each well was detected. • 2) % of KAP1 phosphorylation was calculated according to the following formula:
% of KAP1 phosphorylation=[(Ratiocmpd−(Ratio)Positive)/((Ratio)Vehicle−(Ratio)Positive]*100 • (Ratio)Positive: the mean value of the test values of each positive control well in the test cell plate; • (Ratio)Vehicle: the mean value of the test values of each negative control well in the test cell plate. • 3) the IC50 of each compound was calculated and the dose-effect curve was plotted: % of KAP1 phosphorylation and log of compound's concentration were fit by using Graphpad 8.0 so as to calculate the IC50.
[formula] • X: log of compound's concentration • Y: % of KAP1 phosphorylation

Test [1] concerns subcutaneous xenograft tumor of human glioblastoma LN-18. Description: LN-18 subcutaneous xenograft, combined with radiotherapy. The format is in vivo, NOG mice. The following applies: compound 5 mg/kg intragastric qd × 5 + IR 1 Gy, day 17. Here is the method: 9 Efficacy Test of the Compounds of the Present Disclosure Combined with Radiotherapy on Inhibiting the Growth of Subcutaneous Xenograft Tumor of Human Glioblastoma LN-18
9.1 Experimental Animals: NOG Mice, SPF, Female, 18 to 22 g.
LN-18 tumor cells, DMEM medium:fetal bovine serum=95%:5%, accompanied by adding 100 U/mL penicillin and 100 μg/mL streptomycin, 37° C., 5% CO2.
LN18 tumor cells resuspended in serum-free DMEM medium were inoculated subcutaneously in the right costal region of experimental animals at 1.5*10^7/0.15 mL, and the animals were grouped when the tumor grew to 100 to 150 mm^3. Radiotherapy was performed 1 h after administration of compounds.
Tumor volume: The tumor volume was measured twice a week with a vernier caliper, and the long diameter and short diameter of tumor were measured. The tumor volume was calculated as follows: tumor volume (TV)=0.5×long diameter×short diameter^2. Tumor growth inhibitory rate (TGI %) was calculated according to the tumor volume. TVXn represents the mean tumor volume on day n of the treatment group, TVX0 represents the mean tumor volume on day 0 of the treatment group, TVMn represents the mean tumor volume on day n of the control group, and TVM0 represents the mean tumor volume on day 0 of the control group.

The test system of test [2] is Human glioblastoma cell line LN-18. The experiment in a line: LN18 cell proliferation combined with radiotherapy (CTG assay).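 On IC50: readout is CTG luminescence proliferation not KAP1 phosphorylation.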 The format is cell-based. The following applies: for IC50: LN18 cells, 1 Gy irradiation 1 h after compound, 6 days, CTG. Here is the method: 5 Test of the Inhibitory Activities of the Compounds of the Present Disclosure Combined with Radiotherapy on LN18 Cell Proliferation
• Cell: Human glioblastoma cell line LN-18
5.2 Experimental Procedures
• (1) Cell inoculation • 1) The cell culture fluid was preheated at 37° C. • 2) A complete culture medium of LN18 cells was prepared, at a ratio of DMEM medium:FBS=95:5 (V/V). • 3) Cells were digested with trypsin, collected to serve as a cell suspension, and counted, the cell suspension was then added into a 96-well plate at 1500 cells/well and 100 μL of cell fluid/well, and three parallel wells were set. • 4) After inoculated in the plate, the cells were cultured overnight under the condition of 37° C. and 5% CO2. • (2) Compound addition and incubation • 1) AZD1390 and tested compounds, respectively, were sequentially diluted 5 times with DMSO, starting from the concentration of 10 mM and yielding the concentrations of 10, 2, 0.4, 0.08, 0.016, 0.0032, 0.00064, 0.000128, and 0.0000256 mM in turn. The compound solutions at the above concentrations were diluted 5000 times with the complete culture medium. The final 2× concentrations were in order 2000, 400, 80, 16, 3.2, 0.64, 0.128, 0.0256, and 0.00512 nM. The vehicle control was 0.02% DMSO culture fluid. • 2) A complete culture medium containing 100 μL of the compound solution was added to each well, and the final concentrations of the compounds in the wells were in order 1000, 200, 40, 8, 1.6, 0.32, 0.064, 0.0128, and 0.00256 nM. The 0.01% DMSO culture fluid was contained in the vehicle control well. After incubated with compound for 1 h, the cells were irradiated at a dose of 1 Gy. • 3) After irradiation, the plate was put into an incubator and incubated under the condition of 37° C. and 5% CO2 for 6 days. Then detection was performed by adopting CTG assay (100 μL of liquid from each well was sucked out and discarded, and 50 μL of CTG reagent was added to each well, and incubated at room temperature for 30 min, and the luminescence intensity was detected). • (3) Data analysis • 1) The Luminescence signal (RLU) of each well was detected. • 2) Proliferation inhibitory activity was calculated according to the formula: % inhibitory activity=RLUtreatment/RLUAvg(Vehicle)*100. 5.3 the Inhibitory Activities of Compounds of the Present Disclosure Combined with Radiotherapy on LN18 Cell Proliferation

In the next test the target is ATM (Homo sapiens (Human), UniProt Q13315). Description: Caliper mobility shift assay for ATM. The class given is biochemical. The following applies: read-out: IC50 of inhibitory activity on ATM kinase. Here is the method:
1.2 Determination of the Inhibitory Activities of Compounds on ATM: Caliper Mobility Shift Assay for ATM
To a 96-well plate, 98 μL of DMSO and 2 μL of the 10 mM stock solution were added and mixed evenly so that the concentration of the solution was 200 μM.
Based on the inhibitory rates of the compound at different concentrations, IC50 was calculated according to the formula: Y=Bottom+(Top−Bottom)/(1+(IC50/X)^HillSlope).

[3] abbreviates: Homo sapiens, light or radiation study.
The mark [4] stands for this setting: Homo sapiens, LN-18, light or radiation study.

In general, IC50 refers to the point on the concentration scale where inhibition reaches its midpoint.

Chain of ATM (Q13315 whole entry): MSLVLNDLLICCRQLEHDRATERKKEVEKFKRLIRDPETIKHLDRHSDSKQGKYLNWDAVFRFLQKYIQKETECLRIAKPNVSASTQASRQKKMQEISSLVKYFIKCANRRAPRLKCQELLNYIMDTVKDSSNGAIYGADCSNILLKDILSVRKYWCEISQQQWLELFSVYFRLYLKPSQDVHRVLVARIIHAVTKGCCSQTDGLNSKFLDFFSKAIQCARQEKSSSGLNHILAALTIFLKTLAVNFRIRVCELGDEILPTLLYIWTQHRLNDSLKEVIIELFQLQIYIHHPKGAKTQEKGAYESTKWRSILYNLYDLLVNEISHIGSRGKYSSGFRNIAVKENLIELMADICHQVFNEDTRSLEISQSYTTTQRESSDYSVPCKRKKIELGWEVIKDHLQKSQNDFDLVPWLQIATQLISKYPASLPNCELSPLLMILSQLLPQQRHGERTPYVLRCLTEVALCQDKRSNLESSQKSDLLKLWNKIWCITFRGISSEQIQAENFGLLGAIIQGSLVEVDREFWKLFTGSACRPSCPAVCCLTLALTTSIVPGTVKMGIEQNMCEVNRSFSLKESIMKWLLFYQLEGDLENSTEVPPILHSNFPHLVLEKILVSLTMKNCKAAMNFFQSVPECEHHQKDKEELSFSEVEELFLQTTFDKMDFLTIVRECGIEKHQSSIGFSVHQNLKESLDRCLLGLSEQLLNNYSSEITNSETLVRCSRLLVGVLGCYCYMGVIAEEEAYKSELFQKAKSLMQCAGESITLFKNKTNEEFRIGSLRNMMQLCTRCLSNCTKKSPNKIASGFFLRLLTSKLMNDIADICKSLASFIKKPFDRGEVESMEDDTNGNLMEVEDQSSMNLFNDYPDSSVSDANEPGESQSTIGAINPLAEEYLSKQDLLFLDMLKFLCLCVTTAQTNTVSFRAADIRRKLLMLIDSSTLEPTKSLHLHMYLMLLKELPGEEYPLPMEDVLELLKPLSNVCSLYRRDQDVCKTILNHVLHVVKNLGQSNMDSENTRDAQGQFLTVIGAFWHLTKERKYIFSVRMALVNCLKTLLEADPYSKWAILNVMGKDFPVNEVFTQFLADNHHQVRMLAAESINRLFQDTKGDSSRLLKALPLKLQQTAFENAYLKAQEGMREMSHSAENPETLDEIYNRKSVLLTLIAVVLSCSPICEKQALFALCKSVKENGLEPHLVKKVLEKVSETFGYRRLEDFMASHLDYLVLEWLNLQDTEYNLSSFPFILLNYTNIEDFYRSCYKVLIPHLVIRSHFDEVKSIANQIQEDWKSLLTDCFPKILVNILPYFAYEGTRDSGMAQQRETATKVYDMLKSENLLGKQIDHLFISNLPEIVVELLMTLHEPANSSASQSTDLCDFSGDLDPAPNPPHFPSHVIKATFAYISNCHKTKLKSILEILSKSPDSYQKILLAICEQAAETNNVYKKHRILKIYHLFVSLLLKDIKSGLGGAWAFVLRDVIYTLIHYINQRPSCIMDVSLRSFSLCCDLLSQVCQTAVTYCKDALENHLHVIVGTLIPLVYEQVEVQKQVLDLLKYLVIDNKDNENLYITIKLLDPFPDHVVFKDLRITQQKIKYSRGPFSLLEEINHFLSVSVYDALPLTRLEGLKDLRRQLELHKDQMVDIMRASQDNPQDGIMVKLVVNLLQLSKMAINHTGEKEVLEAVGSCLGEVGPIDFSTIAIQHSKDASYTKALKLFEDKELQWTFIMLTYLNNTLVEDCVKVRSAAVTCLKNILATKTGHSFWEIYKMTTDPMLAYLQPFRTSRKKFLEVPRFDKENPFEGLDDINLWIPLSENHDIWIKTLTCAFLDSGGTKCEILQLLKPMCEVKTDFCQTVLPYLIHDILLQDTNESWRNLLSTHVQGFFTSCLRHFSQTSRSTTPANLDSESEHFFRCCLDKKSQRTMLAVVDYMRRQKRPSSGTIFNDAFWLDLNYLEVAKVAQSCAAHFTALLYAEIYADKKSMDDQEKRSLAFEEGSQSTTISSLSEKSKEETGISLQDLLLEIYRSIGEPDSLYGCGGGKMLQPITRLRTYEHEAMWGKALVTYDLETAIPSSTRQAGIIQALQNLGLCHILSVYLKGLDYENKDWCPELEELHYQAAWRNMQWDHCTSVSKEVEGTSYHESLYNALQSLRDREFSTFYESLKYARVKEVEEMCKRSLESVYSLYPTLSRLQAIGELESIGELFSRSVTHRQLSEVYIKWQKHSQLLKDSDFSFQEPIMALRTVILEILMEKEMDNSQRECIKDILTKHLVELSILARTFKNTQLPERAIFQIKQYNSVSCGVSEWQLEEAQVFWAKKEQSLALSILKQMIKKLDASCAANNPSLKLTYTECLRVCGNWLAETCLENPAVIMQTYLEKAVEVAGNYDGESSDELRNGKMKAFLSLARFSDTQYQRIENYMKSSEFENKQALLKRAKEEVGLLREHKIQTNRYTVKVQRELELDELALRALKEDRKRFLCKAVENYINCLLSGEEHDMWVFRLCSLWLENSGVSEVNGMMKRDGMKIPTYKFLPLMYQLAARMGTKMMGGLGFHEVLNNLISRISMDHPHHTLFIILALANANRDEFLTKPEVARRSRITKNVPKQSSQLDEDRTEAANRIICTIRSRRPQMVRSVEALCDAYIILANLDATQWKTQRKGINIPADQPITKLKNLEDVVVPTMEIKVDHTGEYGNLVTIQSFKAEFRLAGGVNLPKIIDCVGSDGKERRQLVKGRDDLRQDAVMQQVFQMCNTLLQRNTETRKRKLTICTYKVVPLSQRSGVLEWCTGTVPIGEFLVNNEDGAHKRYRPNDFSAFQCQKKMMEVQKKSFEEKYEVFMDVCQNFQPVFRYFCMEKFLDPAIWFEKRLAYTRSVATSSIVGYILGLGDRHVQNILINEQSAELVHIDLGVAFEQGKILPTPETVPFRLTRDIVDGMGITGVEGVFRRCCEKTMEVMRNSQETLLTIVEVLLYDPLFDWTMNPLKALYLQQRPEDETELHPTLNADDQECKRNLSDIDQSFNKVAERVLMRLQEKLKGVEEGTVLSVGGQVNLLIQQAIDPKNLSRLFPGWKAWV

Consider `C[C@H]1COc2c(-c3ccc(OCCCN4CCC5(CC4)CC5)nc3)ccc3ncc4c(c23)n1c(=O)n4C` [Example A-183, (S)-7-(6-(3-(6-azaspiro[2.5]octan-6-yl)propoxy)pyridin-3-yl)-2,10-dimethyl-9,10-dihydro-8-oxa-2,4,10a-triazanaphtho[2,1,8-cde]azulen-1(2H)-one], for which the IC50 in the test on ATM-phosphorylated KAP1 (setting [3]) was determined as 0.22 nM; in test [2] (setting [4]), 1.39 nM; at ATM it was 0.23 nM. Further, in the test with ATM-phosphorylated KAP1 (cellular level, compared with AZD1390 as positive control), the “inhibitory effect on ATM KAP phosphorylation, in words” value is on record as “higher than that of AZD1390”. The “D 17 TGI” value in test [1] turned out to be 85.7%. Moreover, the “D 17 TV (MEAN ± SD)” value in test [1] was 269 ± 89***^# mm^3. In addition, the “inhibitory effect on LN18 cell proliferation, in words” value in test [2] (combined with radiotherapy, compared with AZD1390 as positive control) is “higher than that of AZD1390”.
Take `Cn1c(=O)n2c3c4c(c(-c5ccc(OCCCN6CCCCC6)nc5)ccc4ncc31)OCC21CC1` [Example A-68, 2-methyl-7-(6-(3-(piperidin-1-yl)propoxy)pyridin-3-yl)-2,9-dihydro-1H-spiro[8-oxa-2,4,10a-triazanaphtho[2,1,8-cde]azulene-10,1′-cyclopropan]-1-one]: the figures for the 50% inhibitory concentration (IC50) (in the test on ATM-phosphorylated KAP1 (setting [3]); in test [2] (setting [4]); at ATM) were 0.9 nM, 6.83 nM and 0.37 nM, respectively. Moreover, the “D 17 TGI” value in test [1] came out at 83.9%. Also, the “D 17 TV (MEAN ± SD)” value in test [1] is given as 285 ± 61***^# mm^3.
As for `CC[C@H]1CNc2c(-c3ccc(OCCCN4CCCCC4)nc3)ccc3ncc4c(c23)n1c(=O)n4C` [Example A-203, (S)-10-ethyl-2-methyl-7-(6-(3-(piperidin-1-yl)propoxy)pyridin-3-yl)-2,8,9,10-tetrahydro-1H-2,4,8,10a-tetraazanaphtho[2,1,8-cde]azulen-1(2H)-one], the concentration for half-maximal inhibition (IC50) with ATM-phosphorylated KAP1 amounted to 0.83 nM; in test [2] it was 5.66 nM; on ATM, 0.54 nM. Moreover, in test [1], the “D 17 TGI” value is given as 71.4%. Besides, the “D 17 TV (MEAN ± SD)” value in test [1] is listed as 396 ± 121*** mm^3.
For `C[C@H]1CNc2c(-c3ccc(OCCCN4CCCCC4)nc3)ccc3ncc4c(c23)n1c(=O)n4C` [Example A-198, (S)-2,10-dimethyl-7-(6-(3-(piperidin-1-yl)propoxy)pyridin-3-yl)-2,8,9,10-tetrahydro-1H-2,4,8,10a-tetraazanaphtho[2,1,8-cde]azulen-1(2H)-one] the same measures were 0.64 nM, 5.93 nM, 0.44 nM, 79.3% and 326 ± 77***^# mm^3.
